Assay results from patent publication US10722530B2, “Methods of diagnosing and treating cancer” (CASE WESTERN RESERVE UNIVERSITY, priority 2016, dated 2020).

Columns and labels:
[1] = test system: p53 mutant or deficient lines; assay: Clonogenic survival assay, panel of p53 mutant or deficient lines; details: for resistance compared with p53 WT cells: cell lines with p53 mutation or deficiency vs p53 WT; for effect of UDG depletion on cytotoxicity: shUDG vs shSCR, p53 mutant or deficient cells
Description: (§2) p53 or UDG knockdown was achieved via shRNA transduction. Lentiviral vectors LV-THM-shp53 (which also expresses a GFP reporter) or LV-Bleo-shp53 to perform p53 KD in WT HCT116 cells were obtained from Case Western Reserve University, Cleveland, Ohio Lentiviral vector targeting GFP (sh-GFP) was used as control. UDG shRNA vectors (shUDG: NM_003362.2-656s21c1, shUDG-2: NM_003362.2-758s21c1, and shUDG-3: NM_003362.2-893s21c1) were purchased from Sigma, and a scramble targeting shRNA vector (Sigma) was used as paired control. The lentiviral production and infection were performed as previously described. Cells stably infected with LV-THM-p53 were isolated by cell sorting on the basis of their GFP expression.
(§3) Cancer cells (200-300 cells/well) were seeded in 6-well culture dishes and allowed to adhere overnight. For 5-FdU, cells were treated for 24 h, then gently washed with PBS, and incubated with fresh media for at least 10 days to allow individual colonies to form. […] After 10-18 days, the plates were stained with methylene blue. Colonies containing ≥50 cells were counted. The percentage of survival was determined relative to untreated control averaged over 3 independent experiments.

[2] = test system: p53 WT cancer lines; assay: Clonogenic survival assay, panel of p53 WT lines
Description: as §2, §3

[3] = test system: HEC1A endometrial cancer cells; assay: Colony survival assay, shSCR and shUDG cells; assay type: cell-based, human
Procedure: UDG knockdown was performed via shRNA transduction with validated clone from Sigma-Aldrich. The ID of UDG shRNA clone is NM_003362.2-656s21c1. A non-targeted scramble control shRNA clone (Sigma-Aldrich) was also used. Transfection of shRNA clones was performed according to manufacturer's specifications from Lipofectamine 2000 (Invitrogen). Lentiviral particles were produced via HEK293 cells, and targeted cells were infected and selected with puromycin. The stable UDG knockdown levels were verified for q-PCR and western blot analysis.
DLD1 (200 cells/well) or HEC1A (300 cells/well) cells were plated in 6-well culture dishes and allowed to adhere for 16 h. Cells were treated with drug for 24 h, gently washed twice with 1×PBS, and incubated with fresh media for at least 10 days to allow individual colonies to form. Colonies were stained with methylene blue, and only colonies containing ≥50 cells were counted. The percentage of survival was determined relative to untreated control averaged over 3 independent experiments.

[4] = test system: cleaved PARP or activated caspase 3 in HCT116 p53 KO cells; assay: Western blot of apoptotic proteins; assay type: cell-based, human
Procedure: (§1) Western blots were performed as previously described Yan et al., Clinical Cancer Research. 2007; 13(5):1532-9. Twenty microgram of protein was loaded on SDS-polyacrylamide gel. The following antibodies were used to detect proteins on the membrane: α-Tubulin (Calbiochem); GAPDH (Santa Cruz Biotechnology); UDG (FL-313) (Santa Cruz Biotechnology); cleaved PARP (Asp214)(19F4) (Cell Signaling); cleaved caspase 3 (Cell Signaling); p53 (FL-393) (Santa Cruz Biotechnology); and p21 (Santa Cruz Biotechnology). For quantitative RT-PCR, total RNA from cells was extracted by using RNeasy Plus Mini Kit (Qiagen). cDNA synthesis was performed by using SuperScript III First Strand Kit (Life Technologies).

[5] = test system: cleaved PARP in HCT116 p53 WT cells; assay: Western blot of apoptotic proteins; assay type: cell-based, human; details: shSCR and shUDG, 25 nM 5-FdU 24 h
Procedure: as §1

[6] = test system: DLD1 cells; assay: Cell cycle and BrdU/PI labeling analysis; assay type: cell-based, human; details: for cell cycle progression (PI staining): 100 nM 5-FdU; for cell cycle profile (BrdU and PI co-staining): 100 nM 5-FdU 24 h
Procedure: For cell cycle analysis, DLD1 cells were synchronize by serum starvation for 48 h and released in fresh media for 16 h. The cells were then treated with 100 nM 5-FdU for 4, 8, 12, 20, 24, 28, 32, 36, 48, 72, and 96 h. At each time point, cells were harvested and fixed with methanol. Fixed cells were incubated with DNase-free RNaseA (Roche) and stained with 50 μg/mL PI solution (Sigma-Aldrich). For BrdU/PI labeling analysis, cells were treated with 100 nM 5-FdU for 24 h and pulsed with 10 μM BrdU (BD Biosciences Pharmingen, BrdU Flow Kit) for 45 minutes before collecting cells. According to manufacturer's instructions from BD Biosciences Pharmingen, cells were fixed, treated with DNAse for 1 h at 37° C., stained with FITC anti-BrdU for 20 minutes, and incubated with PI staining solution (50 μg/mL PI, 10 mM Tris-HCl pH 7.5, 5 mM MgCl2, 10 μg/mL DNase-free RNaseA) for 30 minutes at 37° C. For both assays, cells were analyzed on a BD LSRII instrument.

[7] = test system: HCT116 p53 WT cells; details: HCT116 p53 WT, shUDG vs shSCR
Description: as §2, §3

[8] = test system: DLD1 cells; assay: AP site detection assay (genomic uracil and 5-FU); assay type: cell-based, human; details: for levels of AP sites: 0-200 nM 5-FdU 48 h
Procedure: The amount of cellular AP sites was assessed as we previously described by using a NIR cyanine-based AP site probe. […] After the reaction, AP site probe with a final concentration of 25 μM was added and incubated at 37° C. for 1 h. Following incubation, extracted DNA was precipitated, and the supernatant was discarded. DNA pellets were resuspended in H2O, and DNA concentrations were measured and adjusted. The fluorescence intensities of each sample were analyzed with 760 nm excitation and emission scan of 790-847 nm.

O=c1[nH]c(=O)n([C@H]2C[C@H](O)[C@@H](CO)O2)cc1F [5-FdU, 5-fluorodeoxyuridine]
resistance compared with p53 WT cells [1]: significantly more resistant | resistance compared with p53 WT cells ([1]; listed as 5FdU): relatively more resistant | IC50 ([1]; read-out: IC50 values, p53 mutant or deficient lines): > 100 nM | effect of UDG depletion on cytotoxicity [1]: selectively sensitized | effect of UDG depletion on cytotoxicity ([1]; listed as 5FdU): overcame this resistance | IC50 ([2]; read-out: IC50 values, p53 WT cancer lines except A375): < 10 nM | effect of UDG depletion on cytotoxicity ([2]; shUDG vs shSCR, p53 WT cell lines): did not alter the cytotoxicity | cell survival in shSCR-transfected cells ([3]; HEC1A shSCR, high concentrations): moderate loss of cell viability | effect of UDG depletion on drug sensitivity ([3]; HEC1A shUDG vs shSCR): highly sensitized | induction of cleaved PARP or activated caspase 3 ([4]; p53 KO cells depleted of UDG, 48 h to 96 h): robustly induced | induction of cleaved PARP or activated caspase 3 ([4]; p53 KO cells expressing UDG, 25 nM 5-FdU 24 h): not detected | expression of cleaved PARP [5]: induced at 48 h | cell cycle progression (PI staining) ([6]; synchronized DLD1 UDG depleted, late G1 and early S phase, lasted 48 h): strong cell cycle arrest | cell cycle progression (PI staining) ([6]; synchronized DLD1 shSCR, through S phase by 36 h): slowed the progression | cell cycle profile (BrdU and PI co-staining) ([6]; unsynchronized DLD1 shSCR): S phase arrest especially at middle and late S phase | cell cycle profile (BrdU and PI co-staining) ([6]; unsynchronized DLD1 shUDG): arrested at late G1 and early S phase | effect of UDG depletion on cytotoxicity [7]: did not significantly affect | level of uracil and 5-FU in UDG depleted cells relative to shSCR-transfected cells ([8]; 100 nM 5-FdU 24 h): about three times higher | levels of AP sites ([8]; shSCR-transfected cells): remained low | levels of AP sites ([8]; shUDG-transfected cells, dose dependent): dramatic increase
